Data from patent US20230074545A1, “TREATMENT OF CANCER WITH CDK12/13 INHIBITORS” (Kinnate Biopharma Inc., priority 2019, published 2023).

How the values were obtained:
Experiment in all cases: Radiometric kinase panel
Format in all cases: biochemical
CDK4/CycD2 = target: T1, CDK4/CycD2 (Homo sapiens, UniProt P11802)
T1 construct: purchased ProQinase GmbH (Reaction Biology)
How it was run: (§1)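 Activity was measured radiometrically from [gamma-33P]-ATP incorporation into substrate. The kinases were recombinant human GST- or His-tagged proteins, full-length or active fragments, expressed in Sf9 or E. coli. Compound in 10% DMSO was added before the enzyme/substrate mix, which started the reaction.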

SLK = target: T2, SLK (Homo sapiens, UniProt Q9H2G2)
T2 construct: either as full-length or enzymatically active fragments; purchased ProQinase GmbH (Reaction Biology)
How it was run: as §1

AMPKalpha1 = target: T3, AMPKalpha1 (Homo sapiens, UniProt Q13131)
T3 construct: either as full-length or enzymatically active fragments; purchased ProQinase GmbH (Reaction Biology)
How it was run: as §1

CK2alpha2 = target: T4, CK2alpha2 (Homo sapiens, UniProt P19784)
T4 construct: either as full-length or enzymatically active fragments; purchased ProQinase GmbH (Reaction Biology)
How it was run: as §1

KIT = target: T5, KIT (Homo sapiens, UniProt P10721)
T5 construct: either as full-length or enzymatically active fragments; purchased ProQinase GmbH (Reaction Biology)
How it was run: as §1

CDK2/CycE1 = target: T6, CDK2/CycE1 (Homo sapiens, UniProt P24941)
T6 construct: either as full-length or enzymatically active fragments; purchased ProQinase GmbH (Reaction Biology); host or cells: Sf9 insect cells or E. coli (not specified per kinase)
How it was run: as §1

FGFR1 = target: T7, FGFR1 (Homo sapiens, UniProt P11362)
T7 construct: either as full-length or enzymatically active fragments; purchased ProQinase GmbH (Reaction Biology)
How it was run: as §1

JAK3 = target: T8, JAK3 (Homo sapiens, UniProt P52333)
T8 construct: purchased ProQinase GmbH (Reaction Biology)
How it was run: as §1

IKKbeta = target: T9, IKKbeta (Homo sapiens, UniProt O14920)
T9 construct: purchased ProQinase GmbH (Reaction Biology); host or cells: Sf9 insect cells or E. coli (not specified per kinase)
How it was run: as §1

VEGFR3 = target: T10, VEGFR3 (Homo sapiens, UniProt P35916)
T10 construct: either as full-length or enzymatically active fragments; purchased ProQinase GmbH (Reaction Biology)
How it was run: as §1

CDK13/CycK = target: T11, CDK13/CycK (Homo sapiens, UniProt Q14004)
T11 construct: either as full-length or enzymatically active fragments; purchased ProQinase GmbH (Reaction Biology)
How it was run: as §1

MEKK2 = target: T12, MEKK2 (Homo sapiens, UniProt Q9Y2U5)
T12 construct: either as full-length or enzymatically active fragments; purchased ProQinase GmbH (Reaction Biology)
How it was run: as §1

EPHA2 = target: T13, EPHA2 (Homo sapiens, UniProt P29317)
T13 construct: either as full-length or enzymatically active fragments; purchased ProQinase GmbH (Reaction Biology)
How it was run: as §1

CDK20/CycT1 = target: T14, CDK20/CycT1 (Homo sapiens, UniProt Q8IZL9)
T14 construct: either as full-length or enzymatically active fragments; purchased ProQinase GmbH (Reaction Biology)
How it was run: as §1

JNK3 = target: T15, JNK3 (Homo sapiens, UniProt P53779)
T15 construct: either as full-length or enzymatically active fragments; purchased ProQinase GmbH (Reaction Biology)
How it was run: as §1

PRK1 = target: T16, PRK1 (Homo sapiens, UniProt Q16512)
T16 construct: purchased ProQinase GmbH (Reaction Biology)
How it was run: as §1

FGFR4 = target: T17, FGFR4 (Homo sapiens, UniProt P22455)
T17 construct: either as full-length or enzymatically active fragments; purchased ProQinase GmbH (Reaction Biology)
How it was run: as §1

CK2alpha1 = target: T18, CK2alpha1 (Homo sapiens, UniProt P68400)
T18 construct: either as full-length or enzymatically active fragments; purchased ProQinase GmbH (Reaction Biology)
How it was run: as §1

CLK3 = target: T19, CLK3 (Homo sapiens, UniProt P49761)
T19 construct: either as full-length or enzymatically active fragments; purchased ProQinase GmbH (Reaction Biology)
How it was run: as §1

DYRK4 = target: T20, DYRK4 (Homo sapiens, UniProt Q9NR20)
T20 construct: either as full-length or enzymatically active fragments; purchased ProQinase GmbH (Reaction Biology)
How it was run: as §1

IKKalpha = target: T21, IKKalpha (Homo sapiens, UniProt O15111)
T21 construct: either as full-length or enzymatically active fragments; purchased ProQinase GmbH (Reaction Biology)
How it was run: as §1

NEK4 = target: T22, NEK4 (Homo sapiens, UniProt P51957)
T22 construct: purchased ProQinase GmbH (Reaction Biology)
How it was run: as §1

PDK1 = target: T23, PDK1 (Homo sapiens, UniProt O15530)
T23 construct: either as full-length or enzymatically active fragments; purchased ProQinase GmbH (Reaction Biology)
How it was run: as §1

WNK2 = target: T24, WNK2 (Homo sapiens, UniProt Q9Y3S1)
T24 construct: either as full-length or enzymatically active fragments; purchased ProQinase GmbH (Reaction Biology)
How it was run: as §1

PKCepsilon = target: T25, PKCepsilon (Homo sapiens, UniProt Q02156)
T25 construct: either as full-length or enzymatically active fragments; purchased ProQinase GmbH (Reaction Biology); host or cells: Sf9 insect cells or E. coli
How it was run: as §1

CSF1R = target: T26, CSF1R (Homo sapiens, UniProt P07333)
T26 construct: either as full-length or enzymatically active fragments; purchased ProQinase GmbH (Reaction Biology); host or cells: Sf9 insect cells or E. coli
How it was run: as §1

PKCgamma = target: T27, PKCgamma (Homo sapiens, UniProt P05129)
T27 construct: either as full-length or enzymatically active fragments; purchased ProQinase GmbH (Reaction Biology)
How it was run: as §1

FES = target: T28, FES (Homo sapiens, UniProt P07332)
T28 construct: purchased ProQinase GmbH (Reaction Biology)
How it was run: as §1

EIF2AK3 = target: T29, EIF2AK3 (Homo sapiens, UniProt Q9NZJ5)
T29 construct: either as full-length or enzymatically active fragments; purchased ProQinase GmbH (Reaction Biology); host or cells: Sf9 insect cells or E. coli
How it was run: as §1

FER = target: T30, FER (Homo sapiens, UniProt P16591)
T30 construct: either as full-length or enzymatically active fragments; purchased ProQinase GmbH (Reaction Biology); host or cells: Sf9 insect cells or E. coli
How it was run: as §1

PASK = target: T31, PASK (Homo sapiens, UniProt Q96RG2)
T31 construct: either as full-length or enzymatically active fragments; purchased ProQinase GmbH (Reaction Biology)
How it was run: as §1

T26 sequence (P07333 20-972): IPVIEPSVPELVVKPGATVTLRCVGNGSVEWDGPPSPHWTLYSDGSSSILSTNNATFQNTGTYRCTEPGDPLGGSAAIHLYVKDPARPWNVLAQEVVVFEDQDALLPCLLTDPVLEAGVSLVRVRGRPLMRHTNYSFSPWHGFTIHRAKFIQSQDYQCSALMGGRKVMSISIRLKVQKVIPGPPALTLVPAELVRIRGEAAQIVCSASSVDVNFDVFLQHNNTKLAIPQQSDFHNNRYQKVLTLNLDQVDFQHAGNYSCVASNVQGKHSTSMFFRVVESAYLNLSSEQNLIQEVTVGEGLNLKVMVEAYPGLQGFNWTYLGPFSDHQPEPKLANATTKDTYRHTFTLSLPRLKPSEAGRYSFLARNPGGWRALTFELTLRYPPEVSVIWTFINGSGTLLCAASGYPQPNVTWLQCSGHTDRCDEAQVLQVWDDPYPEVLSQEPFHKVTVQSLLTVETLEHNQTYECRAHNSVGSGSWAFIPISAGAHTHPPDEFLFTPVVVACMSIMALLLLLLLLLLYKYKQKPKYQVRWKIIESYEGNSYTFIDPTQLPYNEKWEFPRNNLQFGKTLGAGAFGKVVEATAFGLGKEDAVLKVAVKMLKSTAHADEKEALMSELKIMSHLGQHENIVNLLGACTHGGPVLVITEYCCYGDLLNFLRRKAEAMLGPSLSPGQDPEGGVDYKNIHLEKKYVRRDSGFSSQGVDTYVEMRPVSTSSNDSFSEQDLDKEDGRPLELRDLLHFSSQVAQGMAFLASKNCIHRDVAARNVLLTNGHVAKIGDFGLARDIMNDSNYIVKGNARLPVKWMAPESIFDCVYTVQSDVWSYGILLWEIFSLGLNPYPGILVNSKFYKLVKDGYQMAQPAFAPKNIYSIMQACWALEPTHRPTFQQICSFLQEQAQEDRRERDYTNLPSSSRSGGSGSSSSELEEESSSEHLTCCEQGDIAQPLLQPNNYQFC
T8 sequence (P52333 whole entry): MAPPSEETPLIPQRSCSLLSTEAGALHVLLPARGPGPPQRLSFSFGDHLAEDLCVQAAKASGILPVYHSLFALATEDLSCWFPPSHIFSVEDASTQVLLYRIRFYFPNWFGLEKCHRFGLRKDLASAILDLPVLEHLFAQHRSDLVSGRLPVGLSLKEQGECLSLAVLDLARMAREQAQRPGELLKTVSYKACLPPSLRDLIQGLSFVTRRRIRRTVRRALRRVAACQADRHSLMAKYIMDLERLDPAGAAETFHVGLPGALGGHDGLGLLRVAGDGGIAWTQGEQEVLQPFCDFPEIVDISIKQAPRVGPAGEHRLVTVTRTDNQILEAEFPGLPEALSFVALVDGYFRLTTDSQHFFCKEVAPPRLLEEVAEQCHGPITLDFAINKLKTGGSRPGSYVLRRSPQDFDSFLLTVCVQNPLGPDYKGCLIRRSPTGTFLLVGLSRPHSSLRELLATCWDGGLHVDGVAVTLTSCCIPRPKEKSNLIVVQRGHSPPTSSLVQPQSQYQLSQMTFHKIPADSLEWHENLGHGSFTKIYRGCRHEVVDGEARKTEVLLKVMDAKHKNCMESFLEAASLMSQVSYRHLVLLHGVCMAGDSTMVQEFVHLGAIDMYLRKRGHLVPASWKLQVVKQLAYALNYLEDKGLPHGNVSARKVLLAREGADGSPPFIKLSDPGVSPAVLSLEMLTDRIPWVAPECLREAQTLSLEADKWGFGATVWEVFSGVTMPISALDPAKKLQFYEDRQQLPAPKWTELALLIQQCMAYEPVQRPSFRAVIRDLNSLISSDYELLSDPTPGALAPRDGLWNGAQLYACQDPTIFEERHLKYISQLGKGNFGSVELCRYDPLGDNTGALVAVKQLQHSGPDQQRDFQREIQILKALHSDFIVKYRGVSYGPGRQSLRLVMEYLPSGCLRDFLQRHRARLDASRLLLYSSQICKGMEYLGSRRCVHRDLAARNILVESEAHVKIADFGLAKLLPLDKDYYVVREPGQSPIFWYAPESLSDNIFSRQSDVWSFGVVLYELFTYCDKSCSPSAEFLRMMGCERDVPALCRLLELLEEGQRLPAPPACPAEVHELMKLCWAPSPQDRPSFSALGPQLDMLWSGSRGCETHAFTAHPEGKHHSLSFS
T21 sequence (O15111 whole entry, the tested form may be a part): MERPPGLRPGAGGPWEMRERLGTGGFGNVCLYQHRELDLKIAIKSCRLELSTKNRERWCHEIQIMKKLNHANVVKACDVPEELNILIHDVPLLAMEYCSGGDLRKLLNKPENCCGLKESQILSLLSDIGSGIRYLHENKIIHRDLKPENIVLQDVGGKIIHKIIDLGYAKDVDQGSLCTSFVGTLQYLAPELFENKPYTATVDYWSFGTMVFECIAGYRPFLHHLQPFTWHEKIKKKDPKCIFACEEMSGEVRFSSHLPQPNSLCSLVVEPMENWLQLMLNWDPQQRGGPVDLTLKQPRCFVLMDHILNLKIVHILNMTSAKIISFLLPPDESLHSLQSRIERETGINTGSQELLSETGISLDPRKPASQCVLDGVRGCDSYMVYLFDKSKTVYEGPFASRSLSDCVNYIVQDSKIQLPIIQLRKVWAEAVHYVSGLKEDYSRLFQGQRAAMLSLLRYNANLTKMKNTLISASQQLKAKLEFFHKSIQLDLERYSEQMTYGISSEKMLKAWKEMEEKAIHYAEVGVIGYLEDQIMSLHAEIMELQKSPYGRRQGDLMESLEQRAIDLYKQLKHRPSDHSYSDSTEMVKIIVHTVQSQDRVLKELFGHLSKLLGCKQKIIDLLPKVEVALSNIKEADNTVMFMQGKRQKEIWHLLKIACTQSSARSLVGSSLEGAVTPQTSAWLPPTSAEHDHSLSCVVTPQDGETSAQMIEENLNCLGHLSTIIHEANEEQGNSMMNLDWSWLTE
T15 sequence (P53779 whole entry, the tested form may be a part): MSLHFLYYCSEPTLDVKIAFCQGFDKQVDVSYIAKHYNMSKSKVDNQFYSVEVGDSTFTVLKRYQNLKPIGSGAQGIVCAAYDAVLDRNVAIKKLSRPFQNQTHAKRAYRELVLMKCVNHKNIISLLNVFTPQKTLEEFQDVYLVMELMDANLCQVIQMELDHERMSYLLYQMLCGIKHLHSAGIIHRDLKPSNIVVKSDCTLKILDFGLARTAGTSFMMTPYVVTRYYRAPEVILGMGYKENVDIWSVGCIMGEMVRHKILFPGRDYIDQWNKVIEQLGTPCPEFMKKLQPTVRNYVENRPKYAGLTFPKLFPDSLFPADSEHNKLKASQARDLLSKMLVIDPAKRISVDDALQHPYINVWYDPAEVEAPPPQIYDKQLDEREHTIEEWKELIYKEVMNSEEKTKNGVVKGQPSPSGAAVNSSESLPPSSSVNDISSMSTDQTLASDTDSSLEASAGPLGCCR
T2 sequence (Q9H2G2 whole entry, the tested form may be a part): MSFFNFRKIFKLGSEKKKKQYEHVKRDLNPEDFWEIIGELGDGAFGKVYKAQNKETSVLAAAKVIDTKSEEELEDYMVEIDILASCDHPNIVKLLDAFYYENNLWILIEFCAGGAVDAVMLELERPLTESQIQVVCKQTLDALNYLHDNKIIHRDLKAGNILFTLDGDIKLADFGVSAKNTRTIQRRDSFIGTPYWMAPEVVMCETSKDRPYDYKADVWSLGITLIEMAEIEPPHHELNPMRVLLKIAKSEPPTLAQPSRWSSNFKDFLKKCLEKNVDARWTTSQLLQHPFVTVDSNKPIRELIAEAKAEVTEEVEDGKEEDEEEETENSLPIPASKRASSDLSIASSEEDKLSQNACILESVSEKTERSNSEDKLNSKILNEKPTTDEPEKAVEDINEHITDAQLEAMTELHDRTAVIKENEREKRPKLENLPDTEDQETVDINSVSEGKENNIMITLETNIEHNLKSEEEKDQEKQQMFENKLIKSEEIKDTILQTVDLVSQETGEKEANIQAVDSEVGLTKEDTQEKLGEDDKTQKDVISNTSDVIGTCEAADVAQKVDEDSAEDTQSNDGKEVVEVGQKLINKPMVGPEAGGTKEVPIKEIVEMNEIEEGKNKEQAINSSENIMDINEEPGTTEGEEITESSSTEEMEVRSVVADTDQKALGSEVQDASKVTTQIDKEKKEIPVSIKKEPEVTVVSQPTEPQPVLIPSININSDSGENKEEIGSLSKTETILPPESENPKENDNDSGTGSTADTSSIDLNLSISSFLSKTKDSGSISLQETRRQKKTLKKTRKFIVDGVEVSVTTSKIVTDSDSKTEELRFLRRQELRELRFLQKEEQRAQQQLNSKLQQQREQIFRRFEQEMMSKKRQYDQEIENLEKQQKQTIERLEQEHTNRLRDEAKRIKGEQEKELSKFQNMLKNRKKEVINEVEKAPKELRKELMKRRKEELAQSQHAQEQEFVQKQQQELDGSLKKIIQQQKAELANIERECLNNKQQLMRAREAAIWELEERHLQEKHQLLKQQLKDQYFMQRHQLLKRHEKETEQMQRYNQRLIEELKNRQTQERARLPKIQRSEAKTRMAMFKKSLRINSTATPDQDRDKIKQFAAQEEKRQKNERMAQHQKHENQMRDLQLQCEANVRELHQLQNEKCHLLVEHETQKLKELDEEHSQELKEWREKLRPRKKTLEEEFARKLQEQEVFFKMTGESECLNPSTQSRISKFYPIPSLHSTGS
T4 sequence (P19784 whole entry, the tested form may be a part): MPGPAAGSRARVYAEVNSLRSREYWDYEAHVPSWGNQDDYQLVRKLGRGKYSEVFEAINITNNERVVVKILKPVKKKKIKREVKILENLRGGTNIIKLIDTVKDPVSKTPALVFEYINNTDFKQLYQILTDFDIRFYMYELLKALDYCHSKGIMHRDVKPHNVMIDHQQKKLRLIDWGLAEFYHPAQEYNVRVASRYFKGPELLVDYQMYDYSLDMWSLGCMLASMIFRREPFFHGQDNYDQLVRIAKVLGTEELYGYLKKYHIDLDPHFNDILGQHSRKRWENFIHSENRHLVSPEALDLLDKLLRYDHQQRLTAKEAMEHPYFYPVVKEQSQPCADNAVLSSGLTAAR

C=CC(=O)Nc1ccc(C(=O)N2CC[C@@H](Nc3ncc(C#N)cn3)C2)cc1 [Compound 4, (R)-N-(4-(3-((5-cyanopyrimidin-2-yl)amino)pyrrolidine-1-carbonyl)phenyl)acrylamide]
inhibition at 1 µM (CDK4/CycD2): 0%
inhibition at 1 µM (SLK): 21%
inhibition at 1 µM (AMPKalpha1): 2%
inhibition at 1 µM (CK2alpha2): -14%
inhibition at 1 µM (KIT): -4%
inhibition at 1 µM (CDK2/CycE1): 9%
inhibition at 1 µM (FGFR1): 3%
inhibition at 1 µM (JAK3): -1%
inhibition at 1 µM (IKKbeta): 1%
inhibition at 1 µM (VEGFR3): -5%
inhibition at 1 µM (CDK13/CycK): 87%
inhibition at 1 µM (MEKK2): 8%
inhibition at 1 µM (EPHA2): -5%
inhibition at 1 µM (CDK20/CycT1): 5%
inhibition at 1 µM (JNK3): -4%
inhibition at 1 µM (PRK1): -1%
inhibition at 1 µM (FGFR4): 2%
inhibition at 1 µM (CK2alpha1): -4%
inhibition at 1 µM (CLK3): -9%
inhibition at 1 µM (DYRK4): -7%
inhibition at 1 µM (IKKalpha): -8%
inhibition at 1 µM (NEK4): -1%
inhibition at 1 µM (PDK1): -7%
inhibition at 1 µM (WNK2): -8%
inhibition at 1 µM (PKCepsilon): 15%
inhibition at 1 µM (CSF1R): 14%
inhibition at 1 µM (PKCgamma): -9%
inhibition at 1 µM (FES): -2%
inhibition at 1 µM (EIF2AK3): 14%
inhibition at 1 µM (FER): 15%
inhibition at 1 µM (PASK): -5%
